Common to all, as to assay type: cell-based
One experiment concerns NCI-H226 cells. Nature of the experiment: Cell growth inhibitory effect on human mesothelioma cell line (cell counting kit 8, 6 days). The conditions noted are these: NCI-H226, 144 h. The text has this:
(§1) NCI-H226 cells, a human mesothelioma cell line (ATCC, CRL-5826), NCI-H322 cells, a human lung cancer cell line (the European Collection of Authenticated Cell Cultures, 95111734), OUTOKO cells, a human ovarian cancer cell line (JCRB cell bank, KRB1048) and […] were each subcultured by keeping the cell density under 80% in a RPMI1640 culture medium with 10% fetal bovine serum (FBS). NCI-H226 cells, NCI-H322 cells and SSP-25 cells were each suspended in the RPMI1640 culture medium mentioned above, and plated to a 96-well flat-bottom plate at 500 cells/well in each well, and incubated at 37° C. in an incubator with 5% CO2 for one day. After the incubation, the evaluation of cell growth inhibitory activity was started. OVTOKO cells were suspended in the RPMI1640 culture medium mentioned above, and plated to a 96-well flat-bottom plate at 250 cells/well in each well, and incubated it at 37° C. in an incubator with 5% CO2 for one day. After the incubation, the evaluation of the cell growth inhibitory activity was started. The next day, a test compound was serially diluted to 5 times of its final concentration in the RPM11640 culture medium mentioned above, and the diluted solution was added to each well. In this case, the final concentration of DMSO in each well was adjusted to 0.1%. After the test compound was added, cells were incubated at 37° C. in an incubator with 5% CO2 for 6 days. At the addition of the test compound and 6 days after the addition, the cell counting measurement was performed using a cell counting kit 8 (made by DOJINDO) according to a protocol equivalent to DOJINDO's recommendation. A reagent contained in the kit was added to each plate and color reaction was performed for 2 or 3 hours at 37° C. in an incubator with 5% CO2. After the reaction, an absorbance at wavelength of 450 nm was measured using a microplate reader. A growth inhibition rate was calculated according to the following formula, from which the concentration of a test compound at which cell growth was inhibited by 50% (GI50 value) was determined.

The next experiment relates to NCI-H322 cells. Nature of the experiment: Cell growth inhibitory effect on human lung cancer cell line (cell counting kit 8, 6 days). The conditions noted are these: 144 h; human lung cancer cell line NCI-H322, 6 days incubation.
From the text: as §1

The next experiment deals with OVTOKO cells. The experiment can be described thus: Cell growth inhibitory effect on human ovarian cancer cell line (cell counting kit 8, 6 days). The conditions noted are these: 144 h, 6 days incubation.
From the text: as §1

For 35 compounds, GI50 results are on record in patent US11447471B2, “α,β-unsaturated amide compound” (KYOWA KIRIN CO., LTD., priority 2017, dated 2022).

Turning to `O=C(/C=C/C(F)(F)F)NCc1ccc(Oc2ccc(Cl)cc2)c2ncccc12` [Compound 135, (E)-N-[{8-(4-Chlorophenoxy)quinolin-5-yl}methyl]-4,4,4-trifluoro-2-butenamide], the GI50 with NCI-H226 cells was in the range of 100 to 1000 nM.
In turn, `C=CC(=O)NCc1nc2c(Oc3ccc(C(F)(F)F)cc3)cccc2o1` [Compound 254, N-([4-{4-(Trifluoromethyl)phenoxy}benzo[d]oxazol-2-yl]methyl)acrylamide] came in with a GI50 in the experiment on NCI-H226 cells of 100 to 1000 nM.
In the experiment with NCI-H226 cells, `C=CC(=O)NC1CCCOc2cc(Oc3ccc(C(F)(F)F)cc3)ccc21` (centres unmarked) [Compound 261, N-[8-{4-(Trifluoromethyl)phenoxy}-2,3,4,5-tetrahydrobenzo[b]oxepin-5-yl]acrylamide] showed a GI50 of 100 to 1000 nM.
In turn, `C=CC(=O)N[C@@H]1CC[C@H](Oc2ccc(C(F)(F)F)cc2)c2cnccc21` (stereo in doubt) [Compound 228, N-[8-{4-(Trifluoromethyl)phenoxy}-5,6,7,8-tetrahydroisoquinolin-5-yl]acrylamide] displayed a GI50 with NCI-H322 cells of less than 1000 nM.
For the compound `[H]/C=C/C(=O)NC1CCOc2c1ccc(Oc1ccc(C(F)(F)F)cc1)c2OC` (racemic) [Compound 33, N-[8-Methoxy-7-{4-(trifluoromethyl)phenoxy}chroman-4-yl]acrylamide], the results for the GI50 in the experiment on NCI-H226 cells and in the experiment on OVTOKO cells were less than 100 nM and no more than 3000 nM, respectively.
In the experiment with NCI-H226 cells, `C=CC(=O)NCc1nc2cc(Oc3ccc(C(F)(F)F)cc3)ccc2o1` [Compound 255, N-([5-{4-(Trifluoromethyl)phenoxy}benzo[d]oxazol-2-yl]methyl)acrylamide] displayed a GI50 of 100 to 1000 nM.
For the compound `[H]/C=C/C(=O)NC1CCOc2c1ccc(Oc1ccc(C(F)(F)F)cc1)c2F` (racemic) [Compound 31, N-[8-Fluoro-7-{4-(trifluoromethyl)phenoxy}chroman-4-yl]acrylamide], the GI50 in the experiment on NCI-H226 cells was less than 100 nM; in the experiment with OVTOKO cells it was no more than 3000 nM.
In the case of `C=CC(=O)NCc1ccc(CCc2ccc(C(F)(F)F)cc2)c2nc(C)oc12` [Compound 267, N-([2-Methyl-4-{4-(trifluoromethyl)phenethyl}benzo[d]oxazol-7-yl]methyl)acrylamide], the GI50 was 100 to 1000 nM in the experiment with NCI-H226 cells and no more than 3000 nM in the experiment with OVTOKO cells.
In turn, `C=CC(=O)NCc1ccc(Oc2cnc(C(F)(F)F)nc2)c2ncccc12` [Compound 196, N-{(8-[{2-(Trifluoromethyl)pyrimidin-5-yl}oxy]quinolin-5-yl)methyl}acrylamide] returned a GI50 in the experiment on NCI-H226 cells of 100 to 1000 nM.
`C=CC(=O)Nc1cnc(Oc2ccc(Cl)cc2)c2ncccc12` [Compound 226, N-{8-(4-chlorophenoxy)-1,7-naphthyridin-5-yl}acrylamide]: the GI50 in the experiment with OVTOKO cells is no more than 3000 nM.
`C=CC(=O)N[C@@H]1CC[C@H](Oc2ccc(C(F)(F)F)cc2)c2ncc(Cl)cc21` (relative stereo) [Compound 190, N-((5R*,8S*)-3-Chloro-8-(4-(trifluoromethyl)phenoxy)-5,6,7,8-tetrahydroquinolin-5-yl)acrylamide]: in the experiment with OVTOKO cells, the GI50 was no more than 3000 nM.
For `C=CC(=O)N[C@@H]1CC[C@H](Oc2cnc(Cl)c(Cl)c2)c2nc(Cl)ccc21` (relative stereo) [Compound 181, cis-N-[2-Chloro-8-{(5,6-dichloropyridin-3-yl)oxy}-5,6,7,8-tetrahydroquinolin-5-yl]acrylamide], the GI50 in the experiment on NCI-H226 cells lay within 100 to 1000 nM.
On to `C=CC(=O)NCc1ccc(Oc2ccc(C(F)(F)F)cc2)c2ncc(C)cc12` [Compound 199, N-([3-Methyl-8-{4-(trifluoromethyl)phenoxy}quinolin-5-yl]methyl)acrylamide], for which the GI50 in the experiment with OVTOKO cells was no more than 3000 nM.
`C=CC(=O)NC1COc2c(cccc2Oc2ccc(C(F)(F)F)nc2)C1` (centres unmarked) [Compound 229, N-(8-[{6-(Trifluoromethyl)pyridin-3-yl}oxy]chroman-3-yl)acrylamide] had a GI50 in the experiment with OVTOKO cells of no more than 3000 nM.
`C=CC(=O)NC1COc2cc(Oc3ccc(Cl)cc3)ccc2C1` (centres unmarked) [Compound 37, N-{7-(4-Chlorophenoxy)chroman-3-yl}acrylamide] returned a GI50 in the experiment on OVTOKO cells of no more than 3000 nM.
In the experiment with OVTOKO cells, `C=CC(=O)NCc1ccc(Sc2ccc(C(F)(F)F)cc2)c2ncccc12` [Compound 202, N-{(8-[{4-(Trifluoromethyl)phenyl}thio]quinolin-5-yl)methyl}acrylamide] gave a GI50 of no more than 3000 nM.
The same measure, in the same setting: the figure for `C=CC(=O)NC1CCOc2cc(Oc3ccc(C(F)(F)F)cc3)ccc21` (centres unmarked) [Compound 5, N-[7-{4-(trifluoromethyl)phenoxy}chroman-4-yl]acrylamide] is no more than 3000 nM.
As for `C=CC(=O)Nc1cncc(Oc2ccc(OC(C)C)nc2)c1` [Compound 110, N-[5-{(6-Isopropoxypyridin-3-yl)oxy}pyridin-3-yl]acrylamide], the GI50 in the experiment with NCI-H226 cells was 100 to 1000 nM.
Regarding `C=CC(=O)Nc1cncc(Oc2ccc(OC(F)(F)F)cc2)c1` [Compound 100, N-[5-{4-(Trifluoromethoxy)phenoxy}pyridin-3-yl]acrylamide], the GI50 in the experiment with OVTOKO cells is no more than 3000 nM.
For `C=CC(=O)N[C@@H]1CC[C@H](Oc2ccc(Cl)c(Cl)c2)c2nc(Cl)ccc21` (relative stereo) [Compound 178, cis-N-{2-Chloro-8-(3,4-dichlorophenoxy)-5,6,7,8-tetrahydroquinolin-5-yl}acrylamide], the GI50 with NCI-H226 cells was less than 100 nM.
For `C=CC(=O)NCc1ccc(Cc2ccc(C(F)(F)F)cc2)c2ncccc12` [Compound 211, N-([8-{4-(Trifluoromethyl)benzyl}quinolin-5-yl]methyl)acrylamide], the GI50 in the experiment on OVTOKO cells is no more than 3000 nM.
The compound `C=CC(=O)NCc1cnc(Oc2ccc(C(F)(F)F)cc2)c2ccccc12` [Compound 222, N-([1-{4-(Trifluoromethyl)phenoxy}isoquinolin-4-yl]methyl)acrylamide] showed a GI50 with OVTOKO cells of no more than 3000 nM.
The compound `C=CC(=O)N[C@@H]1CC[C@H](Oc2ccccc2)c2ncccc21` (relative stereo) [Compound 67, cis-N-(8-Phenoxy-5,6,7,8-tetrahydroquinolin-5-yl)acrylamide] returned a GI50 in the experiment with NCI-H226 cells of 100 to 1000 nM.
As for `C=CC(=O)N[C@@H]1CC[C@H](Oc2ccc(C(F)(F)F)cc2)c2nc(CC)ccc21` (relative stereo) [Compound 186, cis-N-[2-ethyl-8-{4-(trifluoromethyl)phenoxy}-5,6,7,8-tetrahydroquinolin-5-yl]acrylamide], the GI50 in the experiment with NCI-H226 cells fell in the range of 100 to 1000 nM.
`C=CC(=O)NCc1ccc(Oc2ccc(C(F)(F)F)nc2)c2ncc(C)cc12` [Compound 200, N-{(3-Methyl-8-[{6-(trifluoromethyl)pyridin-3-yl}oxy]quinolin-5-yl)methyl}acrylamide] registered a GI50 with OVTOKO cells of no more than 3000 nM.
In turn, `[H]/C=C/C(=O)NCc1ccc(Oc2cccc(C(F)(F)F)c2)c2ncccc12` [Compound 137, N-([8-{3-(Trifluoromethyl)phenoxy}quinolin-5-yl]methyl)acrylamide] registered a GI50 in the experiment with OVTOKO cells of no more than 3000 nM.
For `C=CC(=O)Nc1cncc(Oc2ccc(Cl)c(Cl)c2)c1` [Compound 105, N-{5-(3,4-Dichlorophenoxy)pyridin-3-yl}acrylamide], the GI50 with OVTOKO cells was no more than 3000 nM.
`[H]/C=C/C(=O)NC1CCOc2c1ccc(Oc1ccc(Cl)cc1)c2C` (centres unmarked) [Compound 27, N-{7-(4-Chlorophenoxy)-8-methylchroman-4-yl}acrylamide] had a GI50 in the experiment with OVTOKO cells of no more than 3000 nM.
For `C=CC(=O)Nc1cncc(Oc2ccnc(C(F)(F)F)c2)c1` [Compound 108, N-(5-[{2-(Trifluoromethy)pyridin-4-yl}oxy]pyridin-3-yl)acrylamide], the concentration for 50% growth inhibition (GI50) in the experiment with OVTOKO cells was no more than 3000 nM.
As to `C=CC(=O)Nc1cncc(Oc2ccc(C(F)(F)F)cc2)c1` [Compound 96, N-[5-{4-(Trifluoromethyl)phenoxy}pyridin-3-yl]acrylamide], the GI50 in the experiment on OVTOKO cells was no more than 3000 nM.
Compound `C=CC(=O)NC1COc2cccc(Oc3ccc(C(F)(F)F)cc3)c2C1` (centres unmarked) [Compound 35, N-[5-{4-(Trifluoromethyl)phenoxy}chroman-3-yl]acrylamide] returned a GI50 in the experiment on OVTOKO cells of no more than 3000 nM.
In the case of `C=CC(=O)NC1CC[C@@H](Oc2ccc(Cl)cc2)c2nc(OC)ccc21` (stereo in doubt) [Compound 81, trans-N-{8-(4-Chlorophenoxy)-2-methoxy-5,6,7,8-tetrahydroquinolin-5-yl}acrylamide], the GI50 in the experiment on NCI-H226 cells lay in the range of 100 to 1000 nM.
As for `[H]/C=C/C(=O)NCc1ccc(Oc2ccc(C(F)(F)F)cc2)c2ncccc12` [Compound 138, N-([8-{4-(Trifluoromethyl)phenoxy}quinolin-5-yl]methyl)acrylamide], the GI50 in the experiment with OVTOKO cells is no more than 3000 nM.
With `C=CC(=O)NCc1ccc(Oc2ccc(C(F)(F)F)cc2)c2nccc(C)c12` [Compound 201, N-([4-Methyl-8-{4-(trifluoromethyl)phenoxy}quinolin-5-yl]methyl)acrylamide], the GI50 in the experiment with OVTOKO cells is no more than 3000 nM.
Turning to `C=CC(=O)Nc1ccc(OCC2CCC(F)(F)CC2)c2ncccc12` [Compound 126, N-[8-{(4,4-Difluorocyclohexyl)methoxy}quinolin-5-yl]acrylamide], the GI50 with OVTOKO cells is no more than 3000 nM.
